Counter-ions that a name gives are not always drawn.
Columns and labels:
[1] = tested on: rat spinal nerve ligation model of neuropathic pain; assay: mechanical allodynia (von Frey) in the spinal nerve ligation model of neuropathic pain; format: in vivo
Excerpt: (§1) Under halothane anesthesia, the L5 and L6 spinal nerves were tightly ligated in the manner described previously by Chung et al. (Kim S. H., Chung J. M., An experimental model for peripheral neuropathy produced by segmental spinal nerve ligation in the rat. Pain 1992; 50:355-363.). Briefly, an incision was made on the dorsal portion of the hip, and the muscle was blunt dissected to reveal the spinal processes. The L6 transverse process was removed, and the left L5 and L6 spinal nerves were tightly ligated with 5.0 braided silk suture. The wound was cleaned, the membrane sewn with 4.0 dissolvable Vicryl suture and the skin closed with wound clips.
Implantation of the DRG catheters was performed immediately following nerve ligation, with animals maintained under halothane for the entire procedure (35-40 minutes). Catheters were constructed of PE 20 with small pieces of tygon tubing cemented along the catheter to allow for suture anchoring points during surgery. The left L5 DRG was exposed by removing the posterior articular process of the L5 vertebra. Gelfoam was inserted into the cavity to prevent the catheter from damaging the ganglion. The catheter was sutured to the muscle and fascia, then run subcutaneously to exteriorize between the shoulder blades. Saline was infused into the catheter, and it was heat sealed.
The implantation of i.c.v. cannulae were conducted under sodium pentobarbital (50 mg/kg, i.p. Nembutal) anesthesia with nerve ligation occurring just after the implantation; animals were maintained under anesthesia for the entire procedure (40-45 minutes). Animals were implanted with a 22 gauge guide cannulae (Plastics One, Roanoke Va.) cut to 6 mm. The stereotaxic coordinates from bregma were 1.0 mm posterior, 1.6 mm lateral, and 4.5 ventral (Paxinos G. and Watson C., The rat brain in stereotaxic coordinates. New York: Academic Press, 1997). Three skull screws were attached for stability, and the implant was covered with cranioplastic acrylic.
For i.c.v. (intracerebroventricular) infusion, chlorisondamine (10 μg) was dissolved in 5 μl phosphate buffered saline and infused by syringe pump at a rate of 5 μl/min. The infusion was performed 24 hours prior to testing in order to reduce stress to the animals immediately prior to behavioral testing.
For all other routes of administration including intraperotineal (i.p.), intradermal (i.d.) or onto the DRG, chlorisondamine was dissolved in saline. The final volumes for i.p. injections were 1 ml/kg, for i.d. were 50 μl and for DRG injections were 10 μl. All injections were made by hand held syringe.
For the assessment of neuropathic pain, mechanical allodynia in the affected paw of animals who had undergone spinal nerve ligation was evaluated using von Frey filaments. As described previously (Chaplan et al., Quantitative assessment of tactile allodynia in the rat paw. J Neurosci Meth, 1994; 53:55-62), two weeks following surgery, rats were acclimated to the testing box which was constructed of plexiglass with a wire mesh floor to allow access to the planter surface of the hind paws. Using the Dixons Up-Down method, a baseline level of allodynia was taken with allodynia defined as a withdrawal threshold ≦4 g. Test compounds were then administered and subsequent withdrawal thresholds determined.
For spinal nerve ligation experiments, the timing of antagonist administration depended upon the route of administration. With i.c.v. administration, chlorisondamine or its vehicle was given 24 hours prior to further manipulation. On the day of the experiment, a baseline allodynia score was determined and then A-85380 or its vehicle control was given and measures taken at 15, 30 and 60 minutes post agonist injection. Dose response curves for i.p., i.d. and DRG administration were also determined using this time line. […]

[2] = side effects observed after injection in spinal nerve ligated rats; format: in vivo, rat
[3] = tested on: rat paw withdrawal model of acute thermal pain; assay: rat paw withdrawal model of acute thermal pain, normal rats; format: in vivo; settings: A-85380 0.75 μmol/kg
Excerpt: For the assessment of acute pain, a paw thermal stimulator was used to evaluate nociceptive responses to an acute thermal stimulus (Anesthesiology Research Laboratory, Department of Anesthesiology, University of California at San Diego, La Jolla, Calif.). The device and behavioral procedure have been described previously (Hargreaves et al., A new and sensitive method for measuring thermal nociception in cutaneous hyperalgesia, Pain 1988, 32:77-88; Dirig et al., Characterization of variables defining hind paw withdrawal latency evoked by radiant thermal stimuli, J. Neurosci. Meth. 1997; 76:183-191). […] The measured nociceptive response was the latency to withdraw the hind paw when heated by light from a focused projector lamp (current set at 4.8 A). […]
(§2) For acute thermal pain experiments, a baseline withdrawal threshold was determined, and then chlorisondamine or its vehicle was administered. […]
For experiments with repeated measures, i.e. acute thermal pain and mechanical allodynia, data were first analyzed using a two way repeated measures analysis of variance (ANOVA) with two independent factors. For experiments without repeated measures, i.e. formalin, data were first analyzed using a two way ANOVA with two independent factors. […] All post hoc significance was determined using Fishers LSD.

[4] = tested on: formalin model of persistent pain; assay: formalin model of persistent pain, phase two; format: in vivo, rat; settings: A-85380 0.75 μmol/kg
Procedure: The formalin test was used as an assessment of persistent pain. The method, described previously (Bannon et al. 1998) is briefly as follows. Following acclimation to the test environment, 50 μl of a 5% formalin solution was injected subcutaneously into the dorsal surface of one of the rear paws. Only phase two, defined as the 20 minute period from 30 to 50 minutes post formalin injection, was scored for nocifensive behaviors including flinching, licking, and biting.
For formalin experiments, chlorisondamine or its vehicle was infused either 24 h or 40-50 minutes prior to further manipulation. A-85380 was then injected and, 5 minutes later, formalin was injected into the paw. Measures were taken between 30 and 50 minutes post formalin injection.
For experiments with repeated measures, i.e. acute thermal pain and mechanical allodynia, data were first analyzed using a two way repeated measures analysis of variance (ANOVA) with two independent factors. For experiments without repeated measures, i.e. formalin, data were first analyzed using a two way ANOVA with two independent factors. If there was a significant interaction of both factors or of both factors and time, subsequent post hoc one way ANOVAs were performed using each treatment combination as an independent group. The difference in paw withdrawal latencies between the affected and unaffected paw of neuropathic animals tested in acute thermal pain was assessed using a paired t-test. All post hoc significance was determined using Fishers LSD.

[5] = tested on: rat paw withdrawal model of acute thermal pain using neuropathic rats; assay: rat paw withdrawal model of acute thermal pain using neuropathic rats; format: in vivo; settings: antagonist 0.4 μmol/kg, i.p., A-85380 0.75 μmol/kg
Excerpt: as §1
For the assessment of acute pain, a paw thermal stimulator was used to evaluate nociceptive responses to an acute thermal stimulus (Anesthesiology Research Laboratory, Department of Anesthesiology, University of California at San Diego, La Jolla, Calif.). […] The measured nociceptive response was the latency to withdraw the hind paw when heated by light from a focused projector lamp (current set at 4.8 A). […]
as §2
To address this concern, neuropathic rats were assessed in the acute thermal model of paw withdrawal. […]

**Q.** For CNC1(C)C2CCC(C2)C1(C)C (stereo not shown) [Mecamylamine, mecamylamine hydrochloride], which “effect of antagonist pretreatment on A-85380 induced anti-allodynia” value ([1]; antagonist 1 μmol/kg, i.p. 30 minutes prior, A-85380 0.75 μmol/kg, i.p.) is on record?
**A.** The value was “completely blocked”.

**Q.** What about the “effect of antagonist on prostration and ataxia following A-85380 injection” value ([2]; antagonist 1 μmol/kg, i.p. 30 minutes prior to A-85380) of the same compound?
**A.** Its value is “blocked the prostration and ataxia”.

**Q.** Which “anti-allodynia at the DRG” value ([1]; 4.77 μmol/kg, i.p.) does the source give for O=C(NO)c1cncc(N2C[C@H]3CNC[C@H]32)c1 [A-420503, (IR, 5S) 5-(3,6-diazabicyclo [3.2.0]hept-6-yl)-N-hydroxy-nicotinamide] here?
**A.** Its value is “significant anti-allodynia”.

**Q.** What about the “anti-allodynia when injected i.p.” value ([1]; 62 μmol/kg, i.p.) of the same compound?
**A.** Its value is “significant anti-allodynia”.

**Q.** And the “effect of antagonist pretreatment on the compound's effects at the DRG” value ([1]; pretreatment with an NMR antagonist)?
**A.** Its value is “blocked”.

**Q.** What about the “side effects when injected i.p.” value ([2]; 62 μmol/kg, i.p.) of the same compound?
**A.** The value was “without any notable side effects”.

**Q.** Which “effect of systemically administered antagonist on A-85380 induced anti-allodynia” value ([1]; antagonist 19 μmol/kg, i.p. 30 minutes prior, A-85380 0.75 μmol/kg, i.p.) does the source give for C[N+](C)(C)CCCCCC[N+](C)(C)C [Hexamethonium, hexamethonium] here?
**A.** Its value is “blocked”.

**Q.** Which results are given for C[N+](C)(C)CC[N+]1(C)Cc2c(Cl)c(Cl)c(Cl)c(Cl)c2C1 [chlorisondamine, chlorisondamine diiodide]?
**A.** effect of antagonist pretreatment on the antinociceptive action of A-85380 ([3]; antagonist 0.4 μmol/kg, i.p. 30 minutes prior): no effect; effect of systemically administered antagonist on A-85380-induced analgesia ([4]; antagonist 0.4 μmol/kg, i.p. 40-50 minutes prior to formalin): no significant attenuation; effect of i.c.v. antagonist on A-85380-induced analgesia ([4]; antagonist 10 μg i.c.v. 24 hours prior, i.p.): completely blocked; effect of systemically administered antagonist on A-85380 induced anti-allodynia ([1]; antagonist 0.4 μmol/kg, i.p. 30 minutes prior, A-85380 0.75 μmol/kg, i.p.): completely blocked; effect of systemic antagonist on anti-allodynia induced by A-85380 infused onto the DRG ([1]; antagonist 0.4 μmol/kg, i.p. 30 minutes prior, A-85380 20 μg onto DRG): completely blocked; effect of i.c.v. antagonist on A-85380 induced anti-allodynia ([1]; antagonist 10 μg i.c.v. 24 hours prior, A-85380 0.75 μmol/kg, i.p.): completely blocked; effect of antagonist on A-85380 induced antinociception in neuropathic rats [5]: did not alter

**Q.** What does the source list for Cl.Cl.c1cncc(OC[C@@H]2CCN2)c1 [A-85380, 3-(2(S)-azetidinylmethoxy)pyridine dihydrochloride]?
**A.** antinociception (increase in paw withdrawal latency) ([3]; i.p.): antinociceptive action; analgesia (decrease in flinches), phase two of formalin test ([4]; i.p.): analgesic effects; duration of anti-allodynia after DRG infusion ([1]; 10 μg onto the L5 DRG): 15 min; duration of anti-allodynia after DRG infusion ([1]; 20 μg onto the L5 DRG): 30 min; anti-allodynia after ipsalateral paw injection ([1]; 10, 20 and 50 μg/rat, i.d., affected paw, predominately at 15 minutes): only the 50 μg dose of A-85380 had an anti-allodynic effect; anti-allodynia after contralateral paw injection ([1]; 10, 20 and 50 μg/rat, i.d., unaffected paw, predominately at 15 minutes): all three doses of A-85380 induced a significant anti-allodynia; anti-allodynia when infused onto the L5 DRG ([1]; 10 and 20 μg onto the L5 DRG on the side of the ligation): significant anti-allodynia; potency to increase paw withdrawal threshold, DRG compared with i.p. and i.d. administration ([1]; i.d. and DRG doses converted to equivalent systemic dose, fifteen-minute time point): decidedly more potent when administered directly onto the DRG; anti-allodynia (paw withdrawal threshold), systemic administration ([1]; i.p., multiple doses, 15, 30 and 60 minutes): dose dependent anti-allodynia; behaviors induced immediately following injection ([2]; A-85380 0.5-1.0 μmol/kg, i.p.): prostration and ataxia; time point by which prostration and ataxia abated ([2]; A-85380 0.5-1.0 μmol/kg, i.p.): ≤ 15 min
